Laboratory results: patent US8822508B2, “2-oxo-1-pyrrolidinyl imidazothiadiazole derivatives” (UCB Pharma, S.A., priority 2009, dated 2014)

Conditions: not given

| SMILES | melting point |
| --- | --- |
| COCc1nn2c(CN3CC(CC(F)(F)Cl)CC3=O)c(C(F)F)nc2s1 (single isomer, unassigned; (+)) [Compound 23, (+)-4-(2-chloro-2,2-difluoroethyl)-1-{[6-(difluoromethyl)-2-(methoxymethyl)imidazo[2,1-b][1,3,4]thiadiazol-5-yl]methyl}pyrrolidin-2-one] | 73 °C |
| O=C1C[C@H](CC(F)(F)Cl)CN1Cc1c(C(F)(F)F)nc2sc(CO)nn12 [Compound 8, (4R)-4-(2-chloro-2,2-difluoroethyl)-1-{[2-(hydroxymethyl)-6-(trifluoromethyl)imidazo[2,1-b][1,3,4]thiadiazol-5-yl]methyl}pyrrolidin-2-one] | 154 °C |
| COCc1nn2c(CN3C[C@H](CC(F)(F)F)CC3=O)c(C(F)(F)F)nc2s1 [Compound 12, (4S)-1-{[2-(methoxymethyl)-6-(trifluoromethyl)imidazo[2,1-b][1,3,4]thiadiazol-5-yl]methyl}-4-(2,2,2-trifluoroethyl)pyrrolidin-2-one] | 73 °C |

Continued, values first:

| melting point | SMILES |
| --- | --- |
| 70 °C | COCc1nn2c(CN3CC(CC(C)(F)F)CC3=O)c(C(F)(F)F)nc2s1 (single isomer, unassigned; (+)) [Compound 2, (+)-4-(2,2-difluoropropyl)-1-{[2-(methoxymethyl)-6-(trifluoromethyl)imidazo[2,1-b][1,3,4]thiadiazol-5-yl]methyl}pyrrolidin-2-one] |
| 60 °C | COCc1nn2c(CN3CC(CCC(F)(F)F)CC3=O)c(Cl)nc2s1 (single isomer, unassigned; (+)) [Compound 27, (+)-1-{[6-chloro-2-(methoxymethyl)imidazo[2,1-b][1,3,4]thiadiazol-5-yl]methyl}-4-(3,3,3-trifluoropropyl)pyrrolidin-2-one] |
| 67 °C | COCc1nn2c(CN3CC(CC(C)(F)F)CC3=O)c(C(F)(F)F)nc2s1 (single isomer, unassigned; (-)) [Compound 3, (−)-4-(2,2-difluoropropyl)-1-{[2-(methoxymethyl)-6-(trifluoromethyl)imidazo[2,1-b][1,3,4]thiadiazol-5-yl]methyl}pyrrolidin-2-one] |
| 72 °C | COCc1nn2c(CN3C[C@@H](CC(F)(F)F)CC3=O)c(C(F)(F)F)nc2s1 [Compound 11, (4R)-1-{[2-(methoxymethyl)-6-(trifluoromethyl)imidazo[2,1-b][1,3,4]thiadiazol-5-yl]methyl}-4-(2,2,2-trifluoroethyl)pyrrolidin-2-one] |

Conditions: Gower A. J. et al., Eur. J. Pharmacol. (1992), 222, 193-203; cited from earlier work

| SMILES | activity in the treatment of epilepsy (seizure control) |
| --- | --- |
| CC[C@H](C(N)=O)N1CCCC1=O [(R)-α-ethyl-2-oxo-1-pyrrolidine acetamide] | completely lacks activity |
